{"source": "paper PMC6150735", "about": "“Molecular Docking-Based Design and Development of a Highly Selective Probe Substrate for UDP-glucuronosyltransferase 1A10” (Molecular Pharmaceutics, 2018)", "key": {"UGT1A10": {"target": "T1, UGT1A10 (Homo sapiens, UniProt Q9HAW8)", "T1 construct": "His-tag; made in house; host or cells: baculovirus-infected insect cells", "T1 sequence (Q9HAW8 26-530)": "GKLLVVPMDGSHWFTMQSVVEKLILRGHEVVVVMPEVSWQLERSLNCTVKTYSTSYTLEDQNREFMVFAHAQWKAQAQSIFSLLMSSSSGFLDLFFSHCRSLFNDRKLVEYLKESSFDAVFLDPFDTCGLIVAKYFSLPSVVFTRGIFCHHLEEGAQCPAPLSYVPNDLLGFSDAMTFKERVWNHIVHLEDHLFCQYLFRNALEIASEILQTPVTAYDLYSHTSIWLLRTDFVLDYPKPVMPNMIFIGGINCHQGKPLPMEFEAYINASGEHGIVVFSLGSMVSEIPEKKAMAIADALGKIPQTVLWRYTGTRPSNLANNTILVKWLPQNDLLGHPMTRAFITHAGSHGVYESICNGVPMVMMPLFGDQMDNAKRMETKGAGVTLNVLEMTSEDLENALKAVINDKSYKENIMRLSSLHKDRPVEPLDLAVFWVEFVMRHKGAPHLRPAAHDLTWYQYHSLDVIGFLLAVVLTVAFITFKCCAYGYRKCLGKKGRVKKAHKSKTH", "assay": "Glucuronidation kinetics by recombinant wild-type UGT1A10 (fluorescence decrease, 96-well plate)", "type": "biochemical", "description": "Recombinant human UGTs 1A1, 1A3, 1A6, 1A7, 1A8, 1A9, 1A10, 2A1, 2A2, 2A3, 2B4, 2B10, 2B7, and 2B17 were produced, as His-tagged proteins, in baculovirus-infected insect cells as previously described.[37]−[39] The relative expression level of each of these recombinant UGTs was evaluated by immunodetection, using monoclonal antibody against the His-tag, as described elsewhere.[40] A numeric value of 1.0 was given to the expression level of UGT1A8 and the relative expression level of each of the other UGTs was related to this value. Normalized activities were obtained by dividing the glucuronidation rate values by the relative expression level of the tested UGT. […] The expression levels of the UGTs in the commercial samples could not be determined, so their protein concentration was used to calculate the reaction rate.\nThe incubation mixtures for glucuronidation assays contained 100 mM Tris-HCl buffer pH 7.4, 2.5 mM MgCl2, 0.5 mM UDPGA, recombinant UGT, or microsomes as the enzyme source and 0–15 μM of the test aglycone substrate. […] In subsequent experiments, the control samples lacked the enzyme source since it gave the highest fluorescence background. […] Fluorescence spectra (excitation 200–420 nm; emission 400–600 nm) or fluorescence decrease at 390 nm excitation and 460 nm emission, were measured in these preliminary experiments, using a Shimadzu RF-5000 spectrophotofluorometer. […]"}, "[1]": {"assay": "Glucuronidation by human liver microsomes (HLM)", "type": "in vitro ADME", "conditions": "pooled human liver microsomes (HLM), pH 7.4; human hepatic microsomes", "description": "(§1) A commercial HLM pool (cat no:452210, BD Gentest, Bedford, MA) and human intestine microsomes (HIM) pool (lot. no 1110189, XenoTech, Kansas City, KS) were purchased. Pig liver samples were prepared from untreated female pigs that were used for practicing surgical procedures at the University of Kuopio (currently: University of Eastern Finland, Kuopio campus). Other animal liver microsomes were prepared as described previously.[41] The Ethics Committee for Animal Experiments, University of Kuopio, approved these experiments.\n(§2) The incubation mixtures for glucuronidation assays contained 100 mM Tris-HCl buffer pH 7.4, 2.5 mM MgCl2, 0.5 mM UDPGA, recombinant UGT, or microsomes as the enzyme source and 0–15 μM of the test aglycone substrate. When the incubation mixtures contained microsomes, alamethicin was used at a final concentration of 12.5 μg/mL, but it was not included in the recombinant enzyme assays.[43] In the first experiments three negative control samples were tested, namely (i) without the substrate 7-hydroxycoumarin derivative, (ii) without the cofactor UDPGA, or (iii) without the enzyme source. In subsequent experiments, the control samples lacked the enzyme source since it gave the highest fluorescence background. Preliminary experiments were done under different conditions than most of the later assays, namely in 2.5 mL of 100 mM phosphate buffer pH 7.4, containing 500 μg pig liver microsomes, 1.0 μM compound 6 and 0.5 mM UDPGA, at room temperature. Fluorescence spectra (excitation 200–420 nm; emission 400–600 nm) or fluorescence decrease at 390 nm excitation and 460 nm emission, were measured in these preliminary experiments, using a Shimadzu RF-5000 spectrophotofluorometer.\n(§3) Most of the glucuronidation assays were carried out in 96 multiwell plate format, and incubations were carried out in 100 μL and at 37 °C, in the presence of Tris–HCl buffer pH 7.4, UDPGA, and the tested 7-hydroxycoumarin derivative, at the indicated concentrations. Fluorescence decline in the multiwell plate experiments was monitored every other minute, for 40 min, using an excitation filter at 405 nm and detection at 460 nm, in a Victor2 1420 Multilabel counter (PerkinElmer, Life Sciences, Turku, Finland). The fluorescence values were transformed into molarity using the aglycone substrates for making the respective standard curves. Slopes of the substrate concentration decrease per minute were calculated using linear regression analysis, in which the linear part of the kinetic assay indicated the glucuronidation rate. Enzyme catalyzed glucuronidation rate was calculated by subtracting the blank value from the full reaction value. The intra-assay variability of the kinetic assays was 6% when compound 6 was used as the aglycone substrate. Kinetic analyses were also performed in the same 96 multiwell plates format, with excitation filter at 405 nm and detection at 460 nm, using 6–8 different substrate concentrations per substrate and two different protein concentrations for both the wild-type and mutant UGT1A10. The higher concentrations, 13.5 mg/L for UGT1A10 and 12.0 mg/L for the UGT1A10 mutant, were used when the substrates were HFC, compounds 4 and 6, whereas the lower protein concentrations, 6.75 and 6.0 mg/L for UGT1A10 and the mutant, respectively, were used when the substrates were compounds 1, 2, 3, and 5."}, "[2]": {"tested_on": "human liver microsomes (HLM)", "assay": "Glucuronidation by human liver microsomes (HLM)", "type": "in vitro ADME", "description": "as §1, §2, §3"}}, "note": "“Also recorded” adds a separate entry of the source."}
{"smiles": "O=c1oc2cc(O)ccc2cc1-n1cncn1", "note": "[Compound 6, 7-Hydroxy-3-(1H-1,2,4-triazol-1-yl)-2H-chromen-2-one]", "values": [{"measurement": "Intrinsic glucuronidation clearance (Vmax/Km) by UGT1A10 relative to compounds 1–5", "setting": "UGT1A10", "result": "less than 30%"}, {"measurement": "Km", "setting": "[1]", "result": 82, "unit": "µM"}, {"measurement": "Glucuronidation by HLM (in words)", "setting": "[2]; 10 μM aglycone", "result": "not glucuronidated by HLM at all, or only at very low rates; also recorded: very low or below the detection limit"}, {"measurement": "Vmax", "setting": "[2]; human hepatic microsomes", "result": "4.0 (2.6–5.4) μmol/(min* g prot)"}]}
